From US20220380338A1, “CYCLOALKYL 3-OXOPIPERAZINE CARBOXAMIDES AND CYCLOHETEROALKYL 3-OXOPIPERAZINE CARBOXAMIDES AS NAV1.8 INHIBITORS” (Merck Sharp & Dohme LLC, priority 2021, published 2022) come the findings set out here.

The target in the test is T1, human NaV1.8 (Homo sapiens, UniProt Q9Y5Y9).
T1 construct: expressed in transfected cells
T1 sequence (Q9Y5Y9 whole entry): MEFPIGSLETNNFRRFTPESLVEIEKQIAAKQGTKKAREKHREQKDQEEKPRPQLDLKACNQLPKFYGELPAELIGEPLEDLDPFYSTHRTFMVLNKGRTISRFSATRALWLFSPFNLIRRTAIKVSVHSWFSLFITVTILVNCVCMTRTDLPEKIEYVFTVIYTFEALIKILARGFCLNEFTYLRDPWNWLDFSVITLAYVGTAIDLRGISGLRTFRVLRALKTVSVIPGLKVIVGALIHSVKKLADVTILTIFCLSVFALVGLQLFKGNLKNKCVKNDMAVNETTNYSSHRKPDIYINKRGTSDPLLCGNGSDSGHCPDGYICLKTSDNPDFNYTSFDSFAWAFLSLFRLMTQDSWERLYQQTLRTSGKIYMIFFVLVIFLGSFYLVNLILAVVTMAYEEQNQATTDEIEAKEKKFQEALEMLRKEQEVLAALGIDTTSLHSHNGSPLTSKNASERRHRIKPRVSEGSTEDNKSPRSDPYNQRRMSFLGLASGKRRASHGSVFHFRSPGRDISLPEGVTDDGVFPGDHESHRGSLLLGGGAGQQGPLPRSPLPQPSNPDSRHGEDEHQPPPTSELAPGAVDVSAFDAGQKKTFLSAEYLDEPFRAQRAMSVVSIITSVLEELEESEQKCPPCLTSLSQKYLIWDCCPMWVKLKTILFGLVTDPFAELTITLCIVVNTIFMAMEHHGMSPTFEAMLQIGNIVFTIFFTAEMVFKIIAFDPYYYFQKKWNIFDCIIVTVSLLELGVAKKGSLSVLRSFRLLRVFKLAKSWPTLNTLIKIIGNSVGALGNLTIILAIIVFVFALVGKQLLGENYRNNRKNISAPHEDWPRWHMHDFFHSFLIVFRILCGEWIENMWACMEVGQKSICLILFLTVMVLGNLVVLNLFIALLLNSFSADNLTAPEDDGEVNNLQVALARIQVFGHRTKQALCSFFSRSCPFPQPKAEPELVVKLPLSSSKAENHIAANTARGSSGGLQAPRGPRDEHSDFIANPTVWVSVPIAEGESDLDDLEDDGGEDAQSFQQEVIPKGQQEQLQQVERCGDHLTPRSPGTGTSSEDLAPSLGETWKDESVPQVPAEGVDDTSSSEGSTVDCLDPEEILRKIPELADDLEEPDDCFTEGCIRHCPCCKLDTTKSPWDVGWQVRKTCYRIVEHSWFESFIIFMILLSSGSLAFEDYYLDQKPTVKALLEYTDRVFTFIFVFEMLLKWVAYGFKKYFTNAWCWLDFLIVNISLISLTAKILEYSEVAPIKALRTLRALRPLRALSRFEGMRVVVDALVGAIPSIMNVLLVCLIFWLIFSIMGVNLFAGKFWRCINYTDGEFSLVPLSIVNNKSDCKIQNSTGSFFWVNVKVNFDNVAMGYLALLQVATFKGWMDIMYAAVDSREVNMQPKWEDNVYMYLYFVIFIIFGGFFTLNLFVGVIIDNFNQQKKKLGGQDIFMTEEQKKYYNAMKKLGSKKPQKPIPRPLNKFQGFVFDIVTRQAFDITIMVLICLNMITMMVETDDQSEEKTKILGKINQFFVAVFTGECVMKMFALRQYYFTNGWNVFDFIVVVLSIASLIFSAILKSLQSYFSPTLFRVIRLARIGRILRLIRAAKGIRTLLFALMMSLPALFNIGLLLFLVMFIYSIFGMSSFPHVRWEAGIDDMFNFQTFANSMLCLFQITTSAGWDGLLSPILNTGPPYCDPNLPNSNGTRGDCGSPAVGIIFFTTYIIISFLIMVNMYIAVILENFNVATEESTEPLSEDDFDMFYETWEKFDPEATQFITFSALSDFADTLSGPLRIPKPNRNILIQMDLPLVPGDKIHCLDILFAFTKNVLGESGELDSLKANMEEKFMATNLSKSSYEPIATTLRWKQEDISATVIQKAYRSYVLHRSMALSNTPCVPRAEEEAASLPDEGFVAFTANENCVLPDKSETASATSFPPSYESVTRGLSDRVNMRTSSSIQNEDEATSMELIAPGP
As to the kind of experiment: Nav1.8 Qube® Assay (automated 384-well patch-clamp, inhibition of sodium current). To be noted: human NaV1.8 channels stably expressed in HEK 293 cells, room temperature. It counts as cell-based. In a few lines:
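Whole-cell voltage clamp at room temperature in HEK293 cells stably expressing NaV1.8; from −90 mV hold, 10 s 1 Hz train of 20 ms pulses to 10 mV with 980 ms repolarization to −67 mV. Peak currents of 1st and 10th pulses give resting and inactivated-state IC50s, Hill fit.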
(In patch-clamp work, channel activity is measured electrically.)
Broadly, the IC50 is the concentration needed to halve the response being measured. With `O=C1CN(C(=O)NC(c2ccc(F)c(Cl)c2)C23CC(C(F)(F)F)(C2)C3)CCN1` (single isomer, unassigned) [Example 34A, N-((R or S)-(3-chloro-4-fluorophenyl)(3-(trifluoromethyl)bicyclo [1.1.1]pentan-1-yl)methyl)-3-oxopiperazine-1-carboxamide], half-maximal inhibition (IC50) required 601 nM.

Compound `O=C1CN(C(=O)NC(c2ccc(F)c(Cl)c2)C23CC(C(F)(F)F)(C2)C3)CCN1` (single isomer, unassigned) [Example 34B, N-((S or R)-(3-chloro-4-fluorophenyl)(3-(trifluoromethyl)bicyclo [1.1.1]pentan-1-yl)methyl)-3-oxopiperazine-1-carboxamide] gave an IC50 of 47.1 nM. Turning to `C[C@@H]1C(=O)NCCN1C(=O)NC(c1ccc(F)c(Cl)c1)C12CC(C(F)(F)F)(C1)C2` (single isomer, unassigned) [Example 35A, (2R)-N-((R or S)-(3-chloro-4-fluoro-phenyl)(3-(trifluoro-methyl)bicyclo[1.1.1]pen-tan-1-yl)methyl)-2-methyl-3-oxopiperazine-1-carboxamide], the midpoint of inhibition, the IC50, lay at 6.08 nM. Under `C[C@@H]1C(=O)NCCN1C(=O)NC(c1ccc(F)c(Cl)c1)C12CC(C(F)(F)F)(C1)C2` (single isomer, unassigned) [Example 35B, (2R)-N-((S or R)-(3-chloro-4-fluoro-phenyl)(3-(trifluoro-methyl)bicyclo[1.1.1]pen-tan-1-yl)methyl)-2-methyl-3-oxopiperazine-1-carboxamide] stands 48.6 nM; under `Cc1cc(C(NC(=O)N2CCNC(=O)[C@H]2C)C2CCC(C(F)(F)F)CC2)ccc1F` (single isomer, unassigned) [Example 36A], 55.7 nM; under `Cc1cc(C(NC(=O)N2CCNC(=O)[C@H]2C)C2CCC(C(F)(F)F)CC2)ccc1F` (single isomer, unassigned) [Example 36B], 74.6 nM. Compound `Cc1cc(C(NC(=O)N2CCNC(=O)[C@H]2C)C2CCC(C(F)(F)F)CC2)ccc1F` (single isomer, unassigned) [Example 36C] had an IC50 of 58.1 nM. The same measure for `Cc1cc(C(NC(=O)N2CCNC(=O)[C@H]2C)C2CCC(C(F)(F)F)CC2)ccc1F` (single isomer, unassigned) [Example 36D]: 3.99 nM; for `C[C@@H]1C(=O)NCCN1C(=O)NC(c1ccc(Cl)c(C(F)F)c1)C1CCC(C(F)(F)F)CC1` (single isomer, unassigned) [Example 37A, (2R)-N-((R or S)-(4-chloro-3-(difluoro-methyl)phenyl)(cis-4-(trifluoromethyl)cyclohexyl)methyl)-2-methyl-3-oxopiperazine-1-carboxamide]: 108 nM; for `C[C@@H]1C(=O)NCCN1C(=O)NC(c1ccc(Cl)c(C(F)F)c1)C1CCC(C(F)(F)F)CC1` (single isomer, unassigned) [Example 37B, (2R)-N-((R or S)-(4-chloro-3-(difluoro-methyl)phenyl)(trans-4-(trifluoromethyl)cyclohexyl)methyl)-2-methyl-3-oxopiperazine-1-carboxamide]: 145 nM. Under `C[C@@H]1C(=O)NCCN1C(=O)NC(c1ccc(Cl)c(C(F)F)c1)C1CCC(C(F)(F)F)CC1` (single isomer, unassigned) [Example 37C, (2R)-N-((S or R)-(4-chloro-3-(difluoro-methyl)phenyl)(cis-4-(trifluoromethyl)cyclohexyl)methyl)-2-methyl-3-oxopiperazine-1-carboxamide] stands 27.2 nM; under `C[C@@H]1C(=O)NCCN1C(=O)NC(c1ccc(Cl)c(C(F)F)c1)C1CCC(C(F)(F)F)CC1` (single isomer, unassigned) [Example 37D, (2R)-N-((S or R)-(4-chloro-3-(difluoro-methyl)phenyl)(trans-4-(trifluoromethyl)cyclohexyl)methyl)-2-methyl-3-oxopiperazine-1-carboxamide], 1.99 nM.

Turning to `C[C@@H]1C(=O)NCCN1C(=O)NC(c1ccc(F)c(Cl)c1)C1CC(OC(F)F)C1` (single isomer, unassigned) [Example 38A, (2R)-N-((R or S)-(3-chloro-4-fluoro-phenyl)-(trans-3-(difluoro-methoxy)cyclobutyl)-methyl)-2-methyl-3-oxopiperazine-1-carboxamide], the midpoint of inhibition, the IC50, lay at 146 nM. Under `C[C@@H]1C(=O)NCCN1C(=O)NC(c1ccc(F)c(Cl)c1)C1CC(OC(F)F)C1` (single isomer, unassigned) [Example 38B, (2R)-N-((R or S)-(3-chloro-4-fluorophenyl) (cis-3-(difluoromethoxy)cyclobutyl)methyl)-2-methyl-3-oxopiperazine-1-carboxamide] stands 158 nM; under `C[C@@H]1C(=O)NCCN1C(=O)NC(c1ccc(F)c(Cl)c1)C1CC(OC(F)F)C1` (single isomer, unassigned) [Example 38C, (2R)-N-((S or R)-(3-chloro-4-fluorophenyl) (cis-3-(difluoromethoxy)cyclobutyl)methyl)-2-methyl-3-oxopiperazine-1-carboxamide], 87.1 nM; under `C[C@@H]1C(=O)NCCN1C(=O)NC(c1ccc(F)c(Cl)c1)C1CC(OC(F)F)C1` (single isomer, unassigned) [Example 38D, (2R)-N-((S or R)-(3-chloro-4-fluorophenyl)-(trans-3-(difluoro-methoxy)cyclobutyl)-methyl)-2-methyl-3-oxopiperazine-1-carboxamide], 17.9 nM. The same measure for `C[C@@H]1C(=O)NCCN1C(=O)NC(c1ccc(F)c(Cl)c1F)C1CC(OC(F)F)C1` (single isomer, unassigned) [Example 39A, (2R)-N-((R or S)-(3-chloro-2,4-difluoro-phenyl)(trans-3-(difluoromethoxy)-cyclobutyl)methyl)-2-methyl-3-oxopiperazine-1-carboxamide]: 816 nM; for `C[C@@H]1C(=O)NCCN1C(=O)NC(c1ccc(F)c(Cl)c1F)C1CC(OC(F)F)C1` (single isomer, unassigned) [Example 39B, (2R)-N-((R or S)-(3-chloro-2,4-difluoro-phenyl)(cis-3-(difluoro-methoxy)cyclobutyl)-methyl)-2-methyl-3-oxopiperazine-1-carboxamide]: 916 nM. With `C[C@@H]1C(=O)NCCN1C(=O)NC(c1ccc(F)c(Cl)c1F)C1CC(OC(F)F)C1` (single isomer, unassigned) [Example 39C, (2R)-N-((S or R)-(3-chloro-2,4-difluoro-phenyl)(cis-3-(difluoro-methoxy)cyclobutyl)-methyl)-2-methyl-3-oxopiperazine-1-carboxamide], the concentration for half-maximal inhibition (IC50) stood at 48.5 nM. Under `C[C@@H]1C(=O)NCCN1C(=O)NC(c1ccc(F)c(Cl)c1F)C1CC(OC(F)F)C1` (single isomer, unassigned) [Example 39D, (2R)-N-((S or R)-(3-chloro-2,4-difluoro-phenyl)(trans-3-(difluoro-methoxy)cyclobutyL)-methyl)-2-methyl-3-oxopiperazine-1-carboxamide] stands 8.1 nM. `COC1CC(C(NC(=O)N2CCNC(=O)[C@H]2C)c2ccc(F)c(Cl)c2F)C1` (single isomer, unassigned) [Example 40A, (2R)-N-((R or S)-(3-chloro-2,4-difluoro-phenyl)(trans-3-methoxy-cyclobutyl)methyl)-2-methyl-3-oxopiperazine-1-carboxamide] registered a concentration for half-maximal inhibition (IC50) of 11700 nM. The compound `COC1CC(C(NC(=O)N2CCNC(=O)[C@H]2C)c2ccc(F)c(Cl)c2F)C1` (single isomer, unassigned) [Example 40B, (2R)-N-((R or S)-(3-chloro-2,4-difluoro-phenyl)(cis-3-methoxy-cyclobutyl)methyl)-2-methyl-3-oxopiperazine-1-carboxamide] came in with an IC50 of 14500 nM. Take `COC1CC(C(NC(=O)N2CCNC(=O)[C@H]2C)c2ccc(F)c(Cl)c2F)C1` (single isomer, unassigned) [Example 40C, (2R)-N-((S or R)-(3-chloro-2,4-difluoro-phenyl)(cis-3-methoxycyclobutyl)-methyl)-2-methyl-3-oxopiperazine-1-carboxamide]: the IC50 was 362 nM. The same measure for `COC1CC(C(NC(=O)N2CCNC(=O)[C@H]2C)c2ccc(F)c(Cl)c2F)C1` (single isomer, unassigned) [Example 40D, (2R)-N-((S or R)-(3-chloro-2,4-difluoro-phenyl)(trans-3-methoxycyclobutyl)-methyl)-2-methyl-3-oxopiperazine-1-carboxamide]: 108 nM; for `C[C@@H]1C(=O)NCCN1C(=O)NC(c1ccc(F)c(Cl)c1F)C1CC12CC2` (single isomer, unassigned) [Example 41A, (2R)-N-((R or S)-(3-chloro-2,4-difluoro-phenyl)((R or S)-spiro[2.2]pentan-1-yl)methyl)-2-methyl-3-oxopiperazine-1-carboxamide]: 31.6 nM; for `C[C@@H]1C(=O)NCCN1C(=O)NC(c1ccc(F)c(Cl)c1F)C1CC12CC2` (single isomer, unassigned) [Example 41B, (2R)-N-((S or R)-(3-chloro-2,4-difluoro-phenyl)((R or S)-spiro[2.2]pentan-1-yl)methyl)-2-methyl-3-oxopiperazine-1-carboxamide]: 1180 nM. Take `C[C@@H]1C(=O)NCCN1C(=O)NC(c1ccc(F)c(Cl)c1F)C1CC12CC2` (single isomer, unassigned) [Example 41C, (2R)-N-((R or S)-(3-chloro-2,4-difluoro-phenyl)(S or R)-spiro[2.2]pentan-1-yl)methyl)-2-methyl-3-oxopiperazine-1-carboxamide]: the 50% inhibitory concentration (IC50) stood at 143 nM. Under `C[C@@H]1C(=O)NCCN1C(=O)NC(c1ccc(F)c(Cl)c1F)C1CC12CC2` (single isomer, unassigned) [Example 41D, (2R)-N-((S or R)-(3-chloro-2,4-difluoro-phenyl)((S or R)-spiro[2.2]pentan-1-yl)methyl)-2-methyl-3-oxopiperazine-1-carboxamide] stands 1060 nM.
